This passage reports IC50 results from patent US12172983B2, “EGFR inhibitors” (Blueprint Medicines Corporation, priority 2019, dated 2024).

Test [1] has as its system phosphorylation of EGFR (Tyr1068) in NCI-H1975 cell line that harbors the EGFR L858R T790M mutations. The test is described as follows: NCI-H1975 pEGFR AlphaLISA assay. The conditions noted are these: 4-5 hours incubation, read-out: Ext pEGFR H1975. Type of test: cell-based. In short, it runs like this: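 Phospho-EGFR Tyr1068 AlphaLISA readout: lysates taken from compound-treated H1975 cells (L858R T790M EGFR) after a 4-5 h exposure at 37 °C. Cells had adhered overnight beforehand. IC50 derived by plotting % pEGFR inhibition against log compound concentration.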
On the technique in general: In Alpha technology, singlet oxygen from a donor bead excites a nearby acceptor bead.

In another test the target is T1, EGFR (L858R T790M C797S) (Homo sapiens, UniProt P00533, C797S/L858R/T790M).
T1 construct: purchased SignalChem E10-122VG
T1 sequence (P00533 25-1210 T790M/C797S/L858R): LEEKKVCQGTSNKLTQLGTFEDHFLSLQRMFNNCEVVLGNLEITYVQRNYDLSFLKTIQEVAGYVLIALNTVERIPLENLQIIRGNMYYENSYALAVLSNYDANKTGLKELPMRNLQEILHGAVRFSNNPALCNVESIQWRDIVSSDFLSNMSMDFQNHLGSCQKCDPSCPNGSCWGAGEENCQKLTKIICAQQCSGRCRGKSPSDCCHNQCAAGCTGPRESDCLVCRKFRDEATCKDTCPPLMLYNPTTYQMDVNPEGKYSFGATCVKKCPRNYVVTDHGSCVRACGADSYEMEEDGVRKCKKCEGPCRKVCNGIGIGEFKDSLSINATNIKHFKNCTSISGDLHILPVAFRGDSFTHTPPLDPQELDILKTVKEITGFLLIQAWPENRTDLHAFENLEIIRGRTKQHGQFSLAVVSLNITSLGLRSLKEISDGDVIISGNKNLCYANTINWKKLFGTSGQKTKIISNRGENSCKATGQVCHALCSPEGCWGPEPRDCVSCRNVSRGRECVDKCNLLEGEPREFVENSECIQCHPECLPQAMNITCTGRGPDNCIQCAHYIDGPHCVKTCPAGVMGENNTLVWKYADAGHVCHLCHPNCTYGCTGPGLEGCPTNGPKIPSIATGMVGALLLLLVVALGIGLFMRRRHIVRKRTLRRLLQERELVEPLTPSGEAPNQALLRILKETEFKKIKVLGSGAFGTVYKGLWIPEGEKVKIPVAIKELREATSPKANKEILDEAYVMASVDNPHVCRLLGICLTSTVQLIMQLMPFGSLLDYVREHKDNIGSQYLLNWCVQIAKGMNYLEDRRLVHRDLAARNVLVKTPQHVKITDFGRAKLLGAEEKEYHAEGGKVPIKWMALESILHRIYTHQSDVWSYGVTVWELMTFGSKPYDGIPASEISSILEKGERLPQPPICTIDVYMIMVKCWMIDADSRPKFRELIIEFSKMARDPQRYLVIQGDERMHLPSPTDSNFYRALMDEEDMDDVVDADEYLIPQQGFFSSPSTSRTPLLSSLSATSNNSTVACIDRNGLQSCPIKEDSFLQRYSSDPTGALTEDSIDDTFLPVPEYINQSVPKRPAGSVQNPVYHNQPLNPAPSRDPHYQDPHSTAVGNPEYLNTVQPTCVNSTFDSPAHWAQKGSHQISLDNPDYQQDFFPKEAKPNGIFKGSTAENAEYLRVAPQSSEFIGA
The test is described as follows: Biochemical EGFR inhibition assay (Caliper mobility shift), EGFR LRTMCS mutant. The conditions noted are these: inhibitory activity against EGFR LRTMCS mutant; apparent IC50; read-out: Ext Enz LRTMCS. In short, it runs like this: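 Kinase reactions at 25 °C run to 10–20% peptide phosphorylation, stopped with 35 mM EDTA. Phosphorylated product and substrate separated electrophoretically by mobility shift. Apparent IC50 from percent activity versus log compound concentration.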

[2] abbreviates: Homo sapiens, NCI-H1975, inhibition of phosphorylation of mutant EGFR in NCI-H1975 cells.

The structures appear in SMILES notation. Like-named read-outs stand apart in the source and are kept apart here. Some results are limits rather than exact numbers.

As to `CC(C)c1ccc(N2CC(CS(=O)(=O)C(F)F)C2)c2cnc(Nc3ccnc(N4CC[C@@H](O)[C@@](C)(F)C4)n3)cc12` (single isomer, unassigned) [Compound 219], the IC50 in test [1] (setting [2]) is at most 10 nM; on EGFR (L858R T790M C797S), at most 15 nM.

In the case of `CC(C)c1cnc(N2CC(CS(=O)(=O)C(F)F)C2)c2cnc(Nc3ccnc(N4CC[C@@H](O)[C@@](C)(F)C4)n3)cc12` (single isomer, unassigned) [Compound 220], the IC50 in test [1] (setting [2]) is at most 10 nM; on EGFR (L858R T790M C797S), at most 15 nM.

Consider `C[C@@H]1[C@@H](CS(C)(=O)=O)CN1c1ccc(C(F)(F)F)c2cc(Nc3ccnc(N4CC[C@@H](O)[C@@](C)(F)C4)n3)ncc12` (single isomer, unassigned) [Compound 222], for which the IC50 was at most 10 nM in test [1] (setting [2]) and at most 15 nM at EGFR (L858R T790M C797S).

For `CC(C)c1ccc(N2CC(CS(=O)(=O)C3CNC3)C2)c2cnc(Nc3ccnc(N4CC[C@@H](O)[C@@](C)(F)C4)n3)cc12` (single isomer, unassigned) [Compound 223], the IC50 lay in the range of 30.1 to 50 nM in test [1] (setting [2]) and 20.1 to 30 nM at EGFR (L858R T790M C797S).

As to `CCS(=O)(=O)C[C@H]1CN(c2ncc(C(C)C)c3cc(Nc4ccnc(N5CC[C@@](C)(O)C(F)(F)C5)n4)ncc23)[C@@H]1C` (single isomer, unassigned) [Compound 230, (4R)-1-[4-({8-[(2R,3S)-3-[(ethanesulfonyl)methyl]-2-methylazetidin-1-yl]-5-(propan-2-yl)-2,7-naphthyridin-3-yl}amino)pyrimidin-2-yl]-3,3-difluoro-4-methylpiperidin-4-ol or (4S)-1-[4-({8-[(2R,3S)-3-[(ethanesulfonyl)methyl]-2-methylazetidin-1-yl]-5-(propan-2-yl)-2,7-naphthyridin-3-yl}amino)pyrimidin-2-yl]-3,3-difluoro-4-methylpiperidin-4-ol], the IC50 was at most 10 nM in test [1] (setting [2]) and 15.1 to 20 nM on EGFR (L858R T790M C797S).

`CCS(=O)(=O)C[C@H]1CN(c2cnc(C(C)C)c3cc(Nc4ccnc(N5CC[C@@](C)(O)C(F)(F)C5)n4)ncc23)[C@@H]1C` (single isomer, unassigned) [Compound 231, (4R)-1-[4-({8-[(2R,3S)-3-[(ethanesulfonyl)methyl]-2-methylazetidin-1-yl]-5-(propan-2-yl)-2,6-naphthyridin-3-yl}amino)pyrimidin-2-yl]-3,3-difluoro-4-methylpiperidin-4-ol or (4S)-1-[4-({8-[(2R,3S)-3-[(ethanesulfonyl)methyl]-2-methylazetidin-1-yl]-5-(propan-2-yl)-2,6-naphthyridin-3-yl}amino)pyrimidin-2-yl]-3,3-difluoro-4-methylpiperidin-4-ol]: the IC50 in test [1] (setting [2]) was at most 10 nM; on EGFR (L858R T790M C797S) it was at most 15 nM.

Consider `CO[C@@H]1[C@H](O)CN(c2nccc(Nc3cc4c(C(C)C)ccc(N5C[C@H](CS(C)(=O)=O)[C@H]5C)c4cn3)n2)CC1(F)F` (single isomer, unassigned) [Compound 232, (3S,4S)-5,5-difluoro-1-(4-(5-isopropyl-8-((2R,3S)-2-methyl-3-(methylsulfonylmethyl)azetidin-1-yl)isoquinolin-3-ylamino)pyrimidin-2-yl)-4-methoxypiperidin-3-ol or (3R,4R)-5,5-difluoro-1-(4-(5-isopropyl-8-((2R,3S)-2-methyl-3-(methylsulfonylmethyl)azetidin-1-yl)isoquinolin-3-ylamino)pyrimidin-2-yl)-4-methoxypiperidin-3-ol], for which the IC50 was at most 10 nM in test [1] (setting [2]) and 30.1 to 100 nM at EGFR (L858R T790M C797S).

Consider `CO[C@@H]1[C@H](O)CN(c2nccc(Nc3cc4c(C(C)C)ncc(N5C[C@H](CS(C)(=O)=O)[C@H]5C)c4cn3)n2)CC1(F)F` (single isomer, unassigned) [Compound 233, (3R,4R)-5,5-difluoro-1-[4-({8-[(2R,3S)-3-(methanesulfonylmethyl)-2-methylazetidin-1-yl]-5-(propan-2-yl)-2,6-naphthyridin-3-yl}amino)pyrimidin-2-yl]-4-methoxypiperidin-3-ol or (3S,4S)-5,5-difluoro-1-[4-({8-[(2R,3S)-3-(methanesulfonylmethyl)-2-methylazetidin-1-yl]-5-(propan-2-yl)-2,6-naphthyridin-3-yl}amino)pyrimidin-2-yl]-4-methoxypiperidin-3-ol], for which the IC50 is at most 10 nM in test [1] (setting [2]) and at most 15 nM on EGFR (L858R T790M C797S).

As to `CO[C@H]1[C@@H](O)CN(c2nccc(Nc3cc4c(C(C)C)ncc(N5C[C@H](CS(C)(=O)=O)[C@H]5C)c4cn3)n2)CC1(F)F` (single isomer, unassigned) [Compound 234, (3S,4S)-5,5-difluoro-1-[4-({8-[(2R,3S)-3-(methanesulfonylmethyl)-2-methylazetidin-1-yl]-5-(propan-2-yl)-2,6-naphthyridin-3-yl}amino)pyrimidin-2-yl]-4-methoxypiperidin-3-ol or (3R,4R)-5,5-difluoro-1-[4-({8-[(2R,3S)-3-(methanesulfonylmethyl)-2-methylazetidin-1-yl]-5-(propan-2-yl)-2,6-naphthyridin-3-yl}amino)pyrimidin-2-yl]-4-methoxypiperidin-3-ol], the IC50 (in test [1] (setting [2]); on EGFR (L858R T790M C797S)) was 20.1 to 30 nM throughout.

On to `CO[C@@H]1[C@H](O)CN(c2nccc(Nc3cc4c(C(C)C)cnc(N5C[C@H](CS(C)(=O)=O)[C@H]5C)c4cn3)n2)CC1(F)F` (single isomer, unassigned) [Compound 235, (3R,4R)-5,5-difluoro-1-[4-({8-[(2R,3S)-3-(methanesulfonylmethyl)-2-methylazetidin-1-yl]-5-(propan-2-yl)-2,7-naphthyridin-3-yl}amino)pyrimidin-2-yl]-4-methoxypiperidin-3-ol or (3S,4S)-5,5-difluoro-1-[4-({8-[(2R,3S)-3-(methanesulfonylmethyl)-2-methylazetidin-1-yl]-5-(propan-2-yl)-2,7-naphthyridin-3-yl}amino)pyrimidin-2-yl]-4-methoxypiperidin-3-ol], for which the IC50 was at most 10 nM in test [1] (setting [2]) and at most 15 nM on EGFR (L858R T790M C797S).

Consider `CO[C@@H]1[C@H](O)CN(c2nccc(Nc3cc4c(C(C)C)cnc(N5C[C@H](CS(C)(=O)=O)[C@H]5C)c4cn3)n2)CC1(F)F` (single isomer, unassigned) [Compound 236, (3S,4S)-5,5-difluoro-1-[4-({8-[(2R,3S)-3-(methanesulfonylmethyl)-2-methylazetidin-1-yl]-5-(propan-2-yl)-2,7-naphthyridin-3-yl}amino)pyrimidin-2-yl]-4-methoxypiperidin-3-ol or (3R,4R)-5,5-difluoro-1-[4-({8-[(2R,3S)-3-(methanesulfonylmethyl)-2-methylazetidin-1-yl]-5-(propan-2-yl)-2,7-naphthyridin-3-yl}amino)pyrimidin-2-yl]-4-methoxypiperidin-3-ol], for which the IC50 is 10.1 to 20 nM in test [1] (inhibition of phosphorylation of mutant EGFR in NCI-H1975 cells) and at most 15 nM at EGFR (L858R T790M C797S).

Regarding `CC(C)c1cnc(N2CC(CS(=O)(=O)C(F)(F)F)C2)c2cnc(Nc3ccnc(N4CC[C@@H](O)[C@@](C)(F)C4)n3)cc12` (single isomer, unassigned) [Compound 237], the IC50 in test [1] (setting [2]) lay in the range of 20.1 to 30 nM; on EGFR (L858R T790M C797S), 30.1 to 100 nM.

With `CC(C)c1ccc(N2CC(CS(=O)(=O)C3CN(C)C3)C2)c2cnc(Nc3ccnc(N4CC[C@@H](O)[C@@](C)(F)C4)n3)cc12` (single isomer, unassigned) [Compound 238], the IC50 in test [1] (setting [2]) was at most 10 nM; at EGFR (L858R T790M C797S) it was at most 15 nM.

Consider `CC(C)c1ccc(N2CC(CS(=O)(=O)CCN(C)C)C2)c2cnc(Nc3ccnc(N4CC[C@@H](O)[C@@](C)(F)C4)n3)cc12` (single isomer, unassigned) [Compound 239], for which the IC50 is at most 10 nM in test [1] (setting [2]) and at most 15 nM on EGFR (L858R T790M C797S).

Consider `CC(C)c1ccc(N2C[C@H](CS(C)(=O)=O)[C@H]2C)c2cnc(Nc3ccnc(N4CC[C@@H](OCCO)[C@@](C)(F)C4)n3)cc12` (single isomer, unassigned) [Compound 242], for which the IC50 is at most 10 nM in test [1] (setting [2]) and at most 15 nM on EGFR (L858R T790M C797S).

Take `COCCO[C@@H]1CCN(c2nccc(Nc3cc4c(C(C)C)ccc(N5C[C@H](CS(C)(=O)=O)[C@H]5C)c4cn3)n2)C[C@@H]1F` (single isomer, unassigned) [Compound 245]: the results for the IC50 (in test [1] (setting [2]); at EGFR (L858R T790M C797S)) were at most 10 nM and at most 15 nM, respectively.

On to `COCCO[C@H]1CCN(c2nccc(Nc3cc4c(C(C)C)ccc(N5C[C@H](CS(C)(=O)=O)[C@H]5C)c4cn3)n2)C[C@H]1F` (single isomer, unassigned) [Compound 246], for which the IC50 in test [1] (setting [2]) is at most 10 nM; on EGFR (L858R T790M C797S), at most 15 nM.

As to `CC(C)c1ccc(N2C[C@H](CS(C)(=O)=O)[C@H]2C)c2cnc(Nc3ccnc(N4CC[C@@H](OC[C@H](C)O)[C@@H](F)C4)n3)cc12` (single isomer, unassigned) [Compound 247, (2S)-1-{[(3S,4R)-3-fluoro-1-[4-({8-[(2R,3S)-3-(methanesulfonylmethyl)-2-methylazetidin-1-yl]-5-(propan-2-yl)isoquinolin-3-yl}amino)pyrimidin-2-yl]piperidin-4-yl]oxy}propan-2-ol or (2R)-1-{[(3S,4R)-3-fluoro-1-[4-({8-[(2R,3S)-3-(methanesulfonylmethyl)-2-methylazetidin-1-yl]-5-(propan-2-yl)isoquinolin-3-yl}amino)pyrimidin-2-yl]piperidin-4-yl]oxy}propan-2-ol], the IC50 is at most 10 nM in test [1] (setting [2]) and at most 15 nM on EGFR (L858R T790M C797S).
